Measurements published in patent US9783499B2, “Quinoline derivatives and their applications” (Shenyang Pharmaceutical University, priority 2012, dated 2017).

Key:
Type in all cases: cell-based
Details in all cases: 72 hours
[1] = tested on: H460 (human lung cancer cell); assay: In vitro anti-tumor cellular activity (MTT), H460
Procedure: (§1) After pouring the cell dissociation buffer to the centrifugetube, nutrient solution was added to stop digestion. The centrifugetube were centrifuged for 10 min under 800 r/min, the liquid supernatant was removed, 5 mL culture solution was added, after mixing by pipetting the cell, took 10 μL cell suspension to the cell counting plat, and adjusted the cell concentration to 10^4/well. Among the 96 wells, A1 is empty, 100 μL of cell suspension were added to the other wells. The 96 well plates were incubated in the incubator for 24 h. […] The 96-well plates were placed in an incubator and cultivated for 72 hours. (3) The culture media containing the compounds in the 96-well plates was discarded, and the cells were washed with phosphate buffered solution (PBS) twice. Each well was added with 100 μL MTT (tetrazole) (0.5 mg/mL), and then placed in an incubator to incubate for 4 hours, after which MTT solution was discarded and 100 μL dimethyl sulfoxide was added thereto.

[2] = tested on: U87MG (Human malignant glioblastoma cell); assay: In vitro anti-tumor cellular activity (MTT), U87MG
Procedure: as §1

[3] = tested on: SMMC-7721 (hepatoma cell); assay: In vitro anti-tumor cellular activity (MTT), SMMC-7721
Procedure: as §1

[4] = tested on: HT-29 (colon cancer cell); assay: In vitro anti-tumor cellular activity (MTT), HT-29
Procedure: as §1

[5] = tested on: MDA-MB-231 (human beast cancer cell); assay: In vitro anti-tumor cellular activity (MTT), MDA-MB-231
Procedure: as §1

[6] = tested on: MKN-45 (human gastric carcinoma cell); assay: In vitro anti-tumor cellular activity (MTT), MKN-45
Procedure: as §1

Compound	H460 IC50 [1] [µg/mL]	U87MG IC50 [2] [µg/mL]	SMMC-7721 IC50 [3] [µg/mL]	HT-29 IC50 [4] [µg/mL]	MDA-MB-231 IC50 [5] [µg/mL]	MKN-45 IC50 [6] [µg/mL]
COc1cc2c(Oc3ccc(NC(=S)N/N=C/c4ccccc4)cc3F)ccnc2cc1OCCCN1CCCC1 [Example 36, (E)-N^1-(3-fluoro-4-(6-methoxy-7-(3-(pyrrolidin-1-yl)propoxy)quinoline-4-yloxy)phenyl)-N^4-(benzaldehyde)thiosemicarbazone]	0.034	0.29	0.35	0.012	0.048	0.11
COc1cc2c(Oc3ccc(NC(=S)NN=Cc4ccc(Cl)cc4Cl)cc3F)ccnc2cc1OCCCN1CCN(C)CC1 [Example 40, (E)-N^1-(3-fluoro-4-(6-methoxy-7-(3-(4-methyl-1-piperazinyl)propoxy)quinoline-4-yloxy)phenyl)-N^4-(2,4-dichlorobenzaldehyde)thiosemicarbazone]	2.8	–	3.1	1.9	1.9	1.5
COc1cc2c(Oc3ccc(C=NNC(=O)Nc4ccc(Cl)c(C(F)(F)F)c4)cc3F)ccnc2cc1OCCCN1CCCCC1 [Example 46]	0.33	1.2	0.69	0.45	0.25	0.23
(E)-N^1-(3-fluoro-4-(6-methoxy-7-(3-(morpholin-4-yl)propoxy)quinoline-4-oxy)phenyl)-N^4-(3,4-difluorobenzaldehyde)semicarbazone [Example 23]	3.6	5.6	5.9	–	2.9	5.7
COc1cc2c(Oc3ccc(NC(=O)N/N=C/c4ccccc4)cc3F)ccnc2cc1OCCCN1CCCCC1 [Example 5, (E)-N^1-(3-fluoro-4-(6-methoxy-7-(3-(piperidin-1-yl)propoxy)quinoline-4-yloxy)phenyl)-N^4-(benzaldehyde)semicarbazone]	0.012	0.19	0.16	0.0088	0.010	0.012
COc1cc2c(Oc3ccc(NC(=O)NN=Cc4ccc(F)cc4Cl)cc3F)ccnc2cc1OCCCN1CCOCC1 [Example 14, (E)-N^1-(3-fluoro-4-(6-methoxy-7-(3-(morpholin-4-yl)propoxy)quinoline-4-yloxy)phenyl)-N^4-(2-chloro-4-fluorobenzaldehyde)semicarbazone]	1.2	1.4	1.5	0.81	0.90	0.65
(E)-N^1-(3,5-dichlorophenyl)-N^4-(3-fluoro-4-(6-methoxy-7-(3-(piperidin-1-yl)propoxy)quinolin-4-yloxy)benzylidene)thiosemicarbazide [Example 61]	0.054	0.21	0.22	0.076	0.092	0.15
COc1cc2c(Oc3ccc(NC(=O)N/N=C/c4ccccc4)cc3F)ccnc2cc1OCCCN1CCOCC1 [Example 3, (E)-N^1-(3-fluoro-4-(6-methoxy-7-(3-(morpholin-4-yl)propoxy)quinoline-4-yloxy)phenyl)-N^4-(benzaldehyde)semicarbazone]	0.11	0.33	2.1	0.42	0.13	0.12
COc1cc2c(Oc3ccc(NC(=S)N/N=C/c4ccccc4)cc3F)ccnc2cc1OCCCN1CCOCC1 [Example 38, (E)-N^1-(3-fluoro-4-(6-methoxy-7-(3-(morpholin-4-yl)propoxy)quinoline-4-yloxy)phenyl)-N^4-(benzaldehyde)thiosemicarbazone]	0.16	0.90	1.4	0.28	0.18	0.11
N.N.[Cl][Pt][Cl] [Cisplatin, reference compound]	0.23	0.19	0.90	1.0	0.46	0.68
(E)-N^1-(3-fluoro-4-(6-methoxy-7-(3-(piperidin-1-yl)propoxy)quinoline-4-yloxy)phenyl)-N^4-(2-chloro-4-fluorobenzaldehyde)thiosemicarbazone [Example 43]	0.0067	0.092	0.069	0.0031	0.0029	–
COc1cc2c(Oc3ccc(NC(=S)N/N=C/c4ccccc4)cc3F)ccnc2cc1OCCCN1CCN(C)CC1 [Example 39, (E)-N^1-(3-fluoro-4-(6-methoxy-7-(3-(4-methyl-1-piperazinyl)propoxy)quinoline-4-yloxy)phenyl)-N^4-(benzaldehyde)thiosemicarbazone]	1.1	1.6	1.7	0.94	0.97	0.59
(E)-N^1-(3-fluoro-4-(6-methoxy-7-(3-(4-methylpiperidin-1-yl)propoxy)quinoline-4-yloxy)phenyl)-N^4-(2-chloro-4-fluorobenzaldehyde)semicarbazone [Example 13]	0.097	0.33	0.29	0.16	0.16	0.27
COc1cccc(/C=N/NC(=O)Nc2ccc(Oc3ccnc4cc(OCCCN5CCC(C)CC5)c(OC)cc34)c(F)c2)c1 [Example 7]	0.0012	0.10	0.13	0.0006	0.011	0.0021
COc1cc2c(Oc3ccc(NC(=S)NN=Cc4ccc(F)cc4Cl)cc3F)ccnc2cc1OCCCN1CCN(C)CC1 [Example 42, (E)-N^1-(3-fluoro-4-(6-methoxy-7-(3-(4-methyl-1-piperazinyl)propoxy)quinoline-4-yloxy)phenyl)-N^4-(2-chloro-4-fluorobenzaldehyde)thiosemicarbazone]	0.38	1.0	0.96	–	0.29	0.34
CCC(=NNC(=O)Nc1ccc(Oc2ccnc3cc(OCCCN4CCCCC4)c(OC)cc23)c(F)c1)c1ccccc1 [Example 30, (E)-N^1-(3-fluoro-4-(6-methoxy-7-(3-(piperidin-1-yl)propoxy)quinoline-4-yloxy)phenyl)-N^4-(propiophenone)thiosemicarbazone]	0.0012	0.051	0.44	–	0.0021	0.0020
